“And” between values parts separate entries of the source, which are not always exact repeats. Equal values may be shown once. Read-outs that look alike come from different tables or passages of the source.
Tests used:
[1] = tested on: Leishmania donovani axenic amastigotes (MHOM-ET-67/L82 strain); assay: In vitro activity against L. donovani axenic amastigotes (resazurin); format: cell-based; settings: for IC50: Leishmania donovani
Protocol: (§1) In vitro tests for determination of activity against axenic amastigotes of Leishmania donovani (MHOM-ET-67/L82 strain) and cytotoxicity against mammalian cells (L6-cell-line from rat skeletal myoblasts) as well as against intramacrophage amastigotes of L. donovani were conducted at Swiss TPH according to an established protocol as reported before. For a repetition of these methods, see Supplementary File.
Miltefosine (≥98%, Sigma-Aldrich, Buchs, Switzerland) and podophyllotoxin (≥98%, Sigma-Aldrich, Buchs, Switzerland) were used as positive controls. Growth inhibition assays were meant to give only preliminary information on whether fractions show any bioactivity or not. Due to this explorative nature, this was conducted once. IC50 values represent geometric means of two independent determinations and were calculated by linear regression from the sigmoidal dose inhibition curves using SoftmaxPro (Molecular Devices Cooperation, Sunnyvale, CA, USA) software.
(§2) Biological Assays (according to [14,15])
(§3) The following biological tests were performed by applying validated method s of the Swiss TPH as previously published and described below. […]
(§4) After that, resazurin solution
(§5) (12.5 mg in 100 mL water, 10 μL) was added to each well, and the incubation continued for 2–4 h more. Then, the plates were read using a Spectramax Gemini XS microplate fluorometer (Molecular Devices Cooperation, Sunnyvale, CA, USA) and excitation and emission wavelengths of 536 and 588 nm, respectively. Data were analyzed with the software Softmax Pro (Molecular Devices Cooperation, Sunnyvale, CA, USA), which calculated IC50 values by linear regression and 4‐parameter logistic regression from the sigmoidal dose inhibition curves. […]
In vitro activity against L. donovani axenic amastigotes. Amastigotes of L. donovani strain MHOM/ET/67/L82 were grown in axenic culture at 37 °C in SM medium at pH 5.4 supplemented with 10% heat‐inactivated fetal bovine serum under a 5% CO2 atmosphere. Aliquots containing […] amastigotes from the axenic culture (100 μL), with or without a serial compound dilution (as specified before), were seeded in 96‐well plates. After 70 h of incubation, the plates were inspected under an inverted microscope to assure growth of the controls and sterile conditions.
Then, resazurin solution (12.5 mg in 100 mL water, 10 μL) was added to each well and the plates incubated for another 2 h. Finally, the plates were read using the same conditions mentioned for T. brucei rhodesiense. Data were analyzed in the same way. Miltefosine was used as positive control. […]
(§6) Netherlands). Compounds were diluted with medium as indicated above before being added to parasite cultures incubated in RPMI 1640 medium without hypoxanthine, supplemented with HEPES (5.94 g/L), NaHCO3 (2.1 g/L), neomycin (100 U/mL), AlbumaxR (5 g/L) and washed human red cells A+ at 2.5% hematocrit (0.3% parasitemia).
Serial compound dilutions were prepared as before. The 96‐well plates were incubated in a humidified atmosphere at 37 °C; 4% CO2, 3% O2, 93% N2. After 48 h, 50 μL of 3H‐hypoxanthine (0.5 μCi) was added to each well of the plate. The plates were incubated for a further 24 h under the same conditions. […] The dried filters were inserted into a plastic foil with 10 mL of scintillation fluid and counted in a Betaplate™ liquid scintillation counter (Wallac, Zurich, Switzerland). […]

[2] = In vitro cytotoxicity with L-6 cells (resazurin); format: cell-based; settings: rat, read-out: Cytotoxicity against L6 Rat Skeletal Myoblasts IC50
Protocol: as §1, §2, §3, §4, §5
Aliquots containing 105 amastigotes from the axenic culture (100 μL), with or without a serial compound dilution (as specified before), were seeded in 96‐well plates. After 70 h of incubation, the plates were inspected under an inverted microscope to assure growth of the controls and sterile conditions. […]
as §6
Serial compound dilutions were prepared as before. The 96‐well plates were incubated in a humidified atmosphere at 37 °C; 4% CO2, 3% O2, 93% N2. After 48 h, 50 μL of 3H‐hypoxanthine (0.5 μCi) was added to each well of the plate. The plates were incubated for a further 24 h under the same conditions. The plates were then harvested with a Betaplate™ cell harvester (Wallac, Zurich, Switzerland), and the red blood cells were transferred onto a glass fiber filter then washed with distilled water. The dried filters were inserted into a plastic foil with 10 mL of scintillation fluid and counted in a Betaplate™ liquid scintillation counter (Wallac, Zurich, Switzerland). […]
(§7) Serial compound dilutions prepared, as before, were us ed. […] Finally, the plates were read, and the data were treated as mentioned before. […]
(§8) Extracellular amast igotes were removed by triplicate washing after further 24 h. […] Images of the plates were recorded with an ImageXpress XLS (MD) microscope and automatically analyzed using the MetaXpress Software. […]

[3] = tested on: Leishmania donovani intracellular amastigotes; assay: In vitro activity against intracellular amastigotes of L. donovani in peritoneal murine macrophages; format: cell-based; settings: Macrophage
Protocol: as §1, §2, §3
Serial compound dilutions were prepared as before. […] The dried filters were inserted into a plastic foil with 10 mL of scintillation fluid and counted in a Betaplate™ liquid scintillation counter (Wallac, Zurich, Switzerland). […]
as §7
as §8, with “Software. Infected and non‐infected macrophages, as well as the number of intracellular parasites, were recorded.” for “Software.”

[4] = tested on: Leishmania donovani axenic amastigotes (MHOM-ET-67/L82 strain); parameters: method as in PMID 21157686; settings: cited from earlier work
[5] = tested on: P. falciparum NF54 strain erythrocytic stages; parameters: method as in PMID 21157686; settings: cited from earlier work
[6] = geometric mean of two independent determinations
[7] = geometric mean of two independent determinations (lower; upper)

Compound: C[C@H]1[C@H](C)CC[C@]2(C)CC[C@]3(C)C(=CC[C@@H]4[C@@]5(C)CC[C@@H](O)[C@](C)(C(=O)O)[C@@H]5CC[C@]43C)[C@H]12 [Compound 3, β-boswellic acid]
- SI (selectivity index) ([1]; L6 cytotoxicity vs L. donovani axenic amastigotes): 6.2
- IC50 [1, 6]: 5.3 µM
- IC50 [1, 7]: 2.4 µg/mL
- IC50 at 70 h [2, 7]: 15 µg/mL
- IC50 at 70 h [2, 6]: 33 µM

Compound: CCCCCCCCCCCCCCCCOP(=O)([O-])OCC[N+](C)(C)C [PCM, miltefosine]
- IC50 [1, 6]: 0.12 µM
- IC50 [1, 7]: 0.047 µg/mL
- IC50 [3]: 1.9 µg/mL and 4.7 µM

Compound: COc1cc([C@@H]2c3cc4c(cc3[C@H](O)[C@H]3COC(=O)[C@H]23)OCO4)cc(OC)c1OC [PCP, podophyllotoxin]
- IC50 at 70 h [2, 7]: 0.009 µg/mL
- IC50 at 70 h [2, 6]: 0.02 µM

Compound: C/C1=C\CC/C(C)=C/C[C@](O)(C(C)C)CC/C(C)=C/CC1 [Serratol]
- activity against L. donovani axenic amastigotes [4]: essentially inactive
- antiplasmodial activity in vitro [5]: antiplasmodial activity
